From doi:10.1101/2024.03.29.587371v1 (biorxiv, 2024)
Residues, ends and D or L forms follow the SMILES beside them.

How the values were obtained:
Type in all cases: biochemical
[1] = target: T1, AtFBA4 (SUMO-AtFBA4) (Arabidopsis thaliana, UniProt F4KGQ0); assay: coupled NADH assay, activity relative to control; details: read-out: % residual activity at 5.0 mM
T1 sequence (F4KGQ0 1-393): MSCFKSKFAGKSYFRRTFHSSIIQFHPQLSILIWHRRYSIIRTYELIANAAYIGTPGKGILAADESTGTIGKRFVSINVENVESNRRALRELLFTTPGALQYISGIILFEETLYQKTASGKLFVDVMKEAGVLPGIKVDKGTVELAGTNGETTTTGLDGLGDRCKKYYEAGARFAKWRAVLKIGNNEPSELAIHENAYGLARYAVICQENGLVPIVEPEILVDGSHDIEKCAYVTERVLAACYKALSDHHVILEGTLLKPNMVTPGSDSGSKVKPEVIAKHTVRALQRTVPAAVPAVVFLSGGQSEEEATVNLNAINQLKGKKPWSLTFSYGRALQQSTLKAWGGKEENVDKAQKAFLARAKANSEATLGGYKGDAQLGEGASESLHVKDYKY

[2] = target: T2, AtFBA5 (SUMO-AtFBA5) (Arabidopsis thaliana, UniProt O65581); assay: coupled NADH assay, activity relative to control
T2 sequence (O65581 1-358): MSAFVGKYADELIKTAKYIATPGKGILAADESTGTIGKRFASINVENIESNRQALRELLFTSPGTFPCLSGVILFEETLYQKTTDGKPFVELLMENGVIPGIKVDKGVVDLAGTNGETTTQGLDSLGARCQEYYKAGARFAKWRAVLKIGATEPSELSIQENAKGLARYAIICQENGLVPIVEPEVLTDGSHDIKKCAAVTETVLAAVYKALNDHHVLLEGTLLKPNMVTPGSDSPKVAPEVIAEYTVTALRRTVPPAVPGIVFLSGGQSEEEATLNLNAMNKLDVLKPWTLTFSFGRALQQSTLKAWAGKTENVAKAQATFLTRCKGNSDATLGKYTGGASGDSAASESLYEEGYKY

[3] = target: T1, AtFBA4 (SUMO-AtFBA4); assay: coupled NADH assay at […] nm, FBP saturation curves with inhibitor
[4] = target: T2, AtFBA5 (SUMO-AtFBA5); assay: as above

Structure (SMILES): O=C(O)CCC(=O)C(=O)O [2-OG]
- remaining activity at 5000 µM [1]: 69 ± 2%

Structure (SMILES): O=C(O)C[C@H](O)C(=O)O [Malate]
- remaining activity at 5000 µM [1]: 68 ± 12%

Structure (SMILES): O=P(O)(O)OP(=O)(O)O [PPi]
- % of control activity at 1.0 mM ([2]; pH 7.5, 250 µM FBP): 144 ± 10%

Structure (SMILES): N[C@@H](Cc1ccc(O)cc1)C(=O)N[C@@H](CC(=O)O)C(=O)O [Tyr-Asp] (H-Tyr-Asp-OH)
- remaining activity at 500 µM ([2]; read-out: % residual activity at 0.50 mM): 82 ± 5%

Structure (SMILES): O=c1c(O)c(-c2ccc(O)cc2O)oc2cc(O)cc(O)c12 [morin, 3,5,7,2′,4′-pentahydroxyflavone]
- Ki [3]: 80 ± 10 µM
- Ki [4]: 63 ± 4 µM
